Reference: patent US11396517B1, “Exo-aza spiro inhibitors of menin-MLL interaction” (Janssen Pharmaceutica NV, priority 2017, dated 2022)
Read-outs that look alike come from different tables or passages of the source.

Key:
menin = biological target: T1, menin (Homo sapiens, UniProt O00255, T541A); experiment: Menin/MLL homogenous time-resolved fluorescence (HTRF) assay; type: binding; conditions: location 2; read-out: (2) location 2 Menin HTRF assay (IC50 (nM))
T1 construct: Menin (a.a. 1-610-6×his tag)
T1 sequence (O00255 with tags, fused parts or gaps T541A): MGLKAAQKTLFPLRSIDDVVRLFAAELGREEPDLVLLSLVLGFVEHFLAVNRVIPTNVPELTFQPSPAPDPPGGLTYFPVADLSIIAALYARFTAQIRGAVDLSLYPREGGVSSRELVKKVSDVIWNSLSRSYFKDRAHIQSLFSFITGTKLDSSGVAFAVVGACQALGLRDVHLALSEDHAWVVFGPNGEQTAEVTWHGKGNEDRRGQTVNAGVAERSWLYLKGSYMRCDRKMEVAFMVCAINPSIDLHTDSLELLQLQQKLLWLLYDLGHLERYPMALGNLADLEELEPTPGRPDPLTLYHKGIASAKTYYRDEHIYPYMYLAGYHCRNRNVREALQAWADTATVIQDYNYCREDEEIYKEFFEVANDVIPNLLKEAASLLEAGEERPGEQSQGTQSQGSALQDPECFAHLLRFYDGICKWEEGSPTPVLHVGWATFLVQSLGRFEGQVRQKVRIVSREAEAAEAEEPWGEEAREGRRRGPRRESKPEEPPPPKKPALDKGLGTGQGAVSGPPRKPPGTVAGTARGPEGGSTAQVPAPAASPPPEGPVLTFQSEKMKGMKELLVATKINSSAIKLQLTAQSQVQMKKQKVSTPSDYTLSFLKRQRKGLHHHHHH
How it was run: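 Displacement of 75 nM FITC-MBM1 from terbium-cryptate-labeled His-tagged menin 1-610 ([…]) was read as the 520/490 nm HTRF ratio. Compound (11-point, 3-fold series) got 5 min with menin before peptide, then 15 min at ambient; 0.5% DMSO, Tris pH 7.5.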

MOLM14 = experiment: Proliferation assay B (spheroid assay) MOLM14; type: cell-based, human; conditions: MOLM14 cells, confluence at day 8, absolute IC50, read-out: (3b) Spheroid assay MOLM14 (IC50(μM)) Assay B
How it was run: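 IC50 derived from % effect on day-8 imaged confluence, scaled between DMSO-treated cells (high) and 1 μM staurosporine (low), using a variable-slope fit constrained 0-100%. Cells seeded as spheroids in ultra-low-attachment plates and exposed to compound for 8 days, 0.3% DMSO.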

Row | IC50 (menin) [nM] | IC50 (MOLM14; Homo sapiens, MOLM-14, 192 h) [µM] | IC50 (MOLM14) [µM] | SMILES
1 | 70.5 | > 3.75 |  | FC(F)(F)Cc1cc2c(N3CCC4(CC(Nc5ccc6cc[nH]c6c5)C4)C3)ncnc2s1 (mixture of isomers) [Compound 311]
2 | 1.8 | 1.05 |  | Cn1c(=O)[nH]c2cc(CNC3CCC4(C3)CN(c3ncnc5sc(CC(F)(F)F)cc35)C4)ccc21 (centres unmarked) [Compound 54]
3 | 5.8 |  | 0.62 | CNC(=O)c1ccc(NC2CC3(CCN(c4ncnc5sc(CC(F)(F)F)cc45)C3)C2)cc1 (centres unmarked) [Compound 93]
4 | 2.9 | 0.2 |  | O=c1[nH]c2cc(CNC3CCC4(C3)CN(c3ncnc5sc(CC(F)(F)F)cc35)C4)ccc2o1 (single isomer, unassigned) [Compound 58]
